Assay results as given in patent US10004826B2, “Implantable human liver tissue constructs and uses thereof” (Massachusetts Institute of Technology, priority 2010, dated 2018).

Key:
[1] = test system: luciferase-expressing Plasmodium berghei (Pb-luc); conditions: Huh7.5 and HC04 hepatoma cells in alginate
Experimental: Primary adult human hepatocytes and J2 stromal fibroblasts were seeded in lyophilized alginate sponges and infected with luciferase-expressing Plasmodium berghei (Pb-luc) three days post-seeding. Bioluminescence imaging was performed two days post-infection (FIG. 11a).
Next, the response of Pb-luc-infected hepatoma aggregates in alginate to primaquine treatment was tested.

[2] = molecular target: T1, human CYP2A6 (Homo sapiens, UniProt P11509); conditions: athymic nude, mouse, in vivo, ip, 80 mg/kg
T1 sequence (P11509 1-494): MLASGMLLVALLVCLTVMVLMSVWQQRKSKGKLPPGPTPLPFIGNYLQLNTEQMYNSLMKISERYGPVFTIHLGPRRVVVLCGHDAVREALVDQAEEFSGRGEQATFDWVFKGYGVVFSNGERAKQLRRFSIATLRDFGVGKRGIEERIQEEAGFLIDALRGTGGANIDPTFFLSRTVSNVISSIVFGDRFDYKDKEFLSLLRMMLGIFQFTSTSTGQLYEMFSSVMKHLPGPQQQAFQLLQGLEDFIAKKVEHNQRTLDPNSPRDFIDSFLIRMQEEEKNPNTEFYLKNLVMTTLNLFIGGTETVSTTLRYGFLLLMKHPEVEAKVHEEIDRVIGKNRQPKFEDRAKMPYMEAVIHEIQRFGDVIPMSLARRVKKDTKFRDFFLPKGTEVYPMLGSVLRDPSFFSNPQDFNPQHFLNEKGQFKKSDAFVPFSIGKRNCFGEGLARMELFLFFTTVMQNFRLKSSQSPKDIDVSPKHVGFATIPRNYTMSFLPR
Experimental: Humanized mice established on a nude mouse background were administered coumarin at 80 mg/kg by intraperitoneal injection. Following drug administration, mice were bled by retro-orbital draw at specific timepoints, and drug concentration quantified by LC/MS/MS. Open circles represent humanized mice, and closed circles represent wild-type (no implant) mice. Error bars are SEM for n=3 mice per group.
(§2) Mice administered 80 mg/kg of coumarin injected i.p. or 2 mg/kg debrisoquine (DB) gavaged p.o were subjected to retro-orbital draw at 5, 10 15, 30, 60, 90, and 120 minutes after drug administration, and terminal urine collection at 4 h. From ˜100 ml blood collections, serum was separated by centrifugation at 1200 g for 10 minutes and stored at −20° C. […] The area under the curve from time 0 until the time of the last measurable plasma concentration (AUC0-t) was calculated using the linear trapezoidal. Peak concentration (Cmax) and time to reach maximum concentration (tmax) values were obtained directly from the plasma concentration-time profile. Metabolic ratios were determined by dividing the AUC0-t of metabolite by the AUC0-t of the parent drug.
(§3) Following coumarin or debrisoquine exposure, serum or urine was sampled for quantitation of drug parent and metabolite concentrations by liquid chromatography (LC)/MS/MS.

[3] = test system: Mouse livers; conditions: in vivo
Experimental: Serum samples acquired at 4 h following APAP exposure were assayed for the liver damage marker alanine transaminase (ALT) using an endpoint colorimetric enzymatic assay.
Serum samples acquired at 4 h following APAP exposure were assayed for the liver damage markers aspartame transaminase (AST) using an endpoint colorimetric enzymatic assay. Shown are individual data points for n=3 mice per group, where black bars represent average values for each group.
Explanted livers were sectioned and stained with H&E. Shown are representative sections.
At day 9 of implantation, mice were fed by oral gavage with 500 ml drinking water or 500 ml acetaminophen (APAP, 250 mg/kg) in water. Mice were fasted for 16 h prior to APAP administration. Following APAP exposure, blood was collected by retro-orbital draw at 4 h. Blood samples were acquired by retro-orbital draw at 4 h following APAP exposure, serum separated, and serum analyzed for enzymatic activity of alanine transaminase (ALT) and aspartame transaminase (AST), non-species specific markers of liver damage (Teco Diagnostics). Engineered liver mimetics and mouse livers were extracted for biochemical and histological analysis. Mouse livers were paraffin-embedded, sectioned with 5 um slices, de-paraffinized and stained for hematoxylin and eosin (H&E).

[4] = test system: human liver mimetics; test: Human hepatotoxicity in humanized mice by serum human albumin ELISA; format: in vivo, mouse; conditions: inducers daily at days 4-7 post-implantation; OME oral gavage, RIF i.p.; blood days 2, 5, 7
Excerpt: Error bars are SEM for n=3 or greater.
Blood was collected by retro-orbital draw on days 2, 5 and 7 days after implantation for drug-treated mice and control mice with acellular hydrogel intraperitoneal implantations. Red bars mark average human serum albumin levels at each timepoint for n=3-6 mice per condition.
(§1) Human albumin in serum or media samples was quantified by enzyme-linked immunosorbant assay performed using goat anti-human albumin antibody, horseradish peroxidase detection, and 3,3′,5,5′-tetramethylbenzidine development. Urea was measured by acid- and heat-catalyzed detection of diacetylmonoxime conversion to a colorimetric product. Alanine aminotransfer (ALT) and aspartate aminotransfer (AST) enzymatic levels were detected with clinical kits based on colorimetric endpoint methods.

[5] = test system: hepatitis C virus; conditions: uPA+/+/SCID model; cited from earlier work
[6] = test system: encapsulated human hepatocytes; test: Albumin secretion and urea synthesis of HEP/FIB encapsulated in peptide-derivatized PEG-DA hydrogel; format: cell-based; conditions: 10 μmol/ml peptide; vs RGES controls; one week in vitro
Experimental: Liver mimetics were fabricated using a hydrogel polymerization apparatus. In brief, cellular pre-polymer solution was loaded into a 20-mm diameter, […] silicone spacer, and the solution exposed to UV light from a spot curing system with collimating lens (320-390 nm, 10 mW/cm^2, 20-30 s; EXFO Lite). […] Acrylate-PEG-peptide monomers were synthesized by conjugating RGDS or RGES to acrylate-PEG-N-hydroxysuccinimide (3.4 kDa) at a 1:1 molar ratio in 50 mM sodium bicarbonate buffer (pH 8.5). Reactions were dialyzed overnight against […] MWCO cellulose ester membrane and lyophilized for long-term storage at −80° C. Hepatocyte/fibroblast co-cultures were encapsulated at a final concentration of 8×10^6 hepatocytes/ml pre-polymer, in the absence or presence of an additional 6×10^6 liver endothelial cells (LEC)/ml of pre-polymer.
as §1, with “methods. […]” for “methods.”

[7] = test system: human CYP2D6; test: Debrisoquine metabolism and pharmacokinetics in humanized C57/BL6 mice; conditions: debrisoquine 2 mg/kg oral gavage
Experimental: Humanized mice established on a C57/Bl6 mouse background were administered debrisoquine at 2 mg/kg by oral gavage. Following drug administration, mice were bled by retro-orbital draw at specific timepoints, and drug concentration quantified by LC/MS/MS. […] Error bars are SEM for n=3 mice per group.
as §2, §3

COc1cc(NC(C)CCCN)c2ncccc2c1 (centres unmarked) [primaquine]
Inhibition of parasite development (BLI quantification) [1]: greater effect on inhibiting parasite development in Huh7.5 than in HC04

O=c1ccc2ccc(O)cc2o1 [7-HC, 7-hydroxycoumarin]
Metabolic ratio (metabolite exposure over parent drug exposure, AUC), 7-HC/coumarin [2]: > 0.1

CO[C@H]1/C=C/O[C@@]2(C)Oc3c(C)c(O)c4c(O)c(c(/C=N/N5CCN(C)CC5)c(O)c4c3C2=O)NC(=O)/C(C)=C\C=C\[C@H](C)[C@H](O)[C@@H](C)[C@@H](O)[C@@H](C)[C@H](OC(C)=O)[C@@H]1C [RIF, rifampin]
Mouse liver injury by serum liver function enzyme tests and histopathology [3]: appeared uninjured

COc1ccc2[nH]c([S+]([O-])Cc3ncc(C)c(OC)c3C)nc2c1 (centres unmarked) [OME, omeprazole]
Human serum albumin from humanized mice over time [4]: not affected

COc1ccc2c(O[C@@H]3C[C@H]4C(=O)N[C@]5(C(=O)O)C[C@H]5/C=C\CCCCC[C@H](NC(=O)OC5CCCC5)C(=O)N4C3)cc(-c3csc(NC(C)C)n3)nc2c1 [BILN-2061]
Response of HCV infection to anti-HCV therapy [5]: responding

RGDS
Improvement of encapsulated HEP/FIB synthetic and secretory functions [6]: two- to three-fold

N=C(N)N1Cc2ccccc2C(O)C1 (centres unmarked) [4-OHDB, 4-hydroxydebrisoquine]
Metabolic ratio (metabolite exposure over parent drug exposure, AUC), 4-OHDB/debrisoquine [7]: > 0.1

CC(=O)Nc1ccc(O)cc1 [APAP, acetaminophen]
Mouse liver injury by serum liver function enzyme tests and histopathology [3]: appeared uninjured
